Results from US4895863A, “Novel imidazo[2,1-B]benzothiazoles” (Roussel Uclaf, priority 1987, dated 1990).

molecular target: benzodiazepine receptors; assay: Affinity for benzodiazepine receptors: inhibition of specific binding of 3H-labelled flunitrazepam in rat rear brain membranes; set-up: species or system rats; conditions: inhibition of 50% of specific binding of 0.6×10^-9 mol 3H-flunitrazepam; membranes from rear portion of rat brain
Method: The affinity of the active ingredients for benzodiazepine receptors was measured using a radioactively labelled (^3 H) compound flunitrazepam in a modified version of the method of Squires et al [Nature, (1977), Vol. 266, p. 732]. The values given in Table 2 below are the concentration (mol×10^-9) of the compound under test which inhibited 50% of the specific binding of 0.6×10^-9 mol of ^3 H-labelled flunitrazepam in preparations of membrances from the rear portion of the brain in rats (IC50 values).

Row | SMILES | IC50 [nM]
1 | O=C(c1cn2c(n1)sc1ccccc12)C1CC1 [Example 2] | 20
2 | CC(C)Oc1ccc2c(c1)sc1nc(C(=O)C3CC3)cn12 [Example 7, (7-isopropoxy-imidazo[2,1-b]benzothiazol-2-yl) cyclopropyl-methanone] | 6.3
3 | O=C(c1cn2c3c(sc2n1)CCCC3)C1CC1 [Example 6, (5,6,7,8-tetrahydro-imidazo[2,1-b]benzothiazol-2-yl) cyclopropyl-methanone] | 79
4 | O=C(c1cn2c(n1)sc1cc(OCc3ccccc3)ccc12)C1CC1 [Example 4, (7-benzyloxy-imidazo[2,1-b]-benzothiazol-2-yl) cyclopropyl-methanone] | 3.2
5 | COc1ccc2c(c1)sc1nc(C(=O)C3CC3)cn12 [Example 1, (7-Methoxy-imidazo[2,1-b]benzothiazol-2-yl)-cyclopropylmethanone] | 2.5

Further lines, results first:

Row | IC50 [nM] | SMILES
6 | 60 | Cc1cc2sc3nc(C(=O)C4CC4)cn3c2cc1C [Example 8]
7 | 158 | O=C(c1cn2c(n1)sc1cc3c(cc12)OCO3)C1CC1 [Example 5]
